Laboratory results reported in US20250381179A1, “CHROMAN-BASED COMPOUNDS FOR TREATING CANCER” (priority 2024, published 2025).

Assay: Phase 1 study: safety and tolerability (TEAEs, NCI CTCAE v5.0)
Procedure: The study employed an open-label, 3+3 design, with the option of adding backfill patients to each cohort cleared and deemed safe. […] Tumor responses were assessed every 2 cycles using RECIST v1.1 criteria. […] The study also involves an ongoing dose escalation study where participants receive 100 mg, 200 mg, 300 mg, 400 mg, and 600 mg once daily (QD) dose levels.
Safety was assessed through the analysis of the reported incidence of treatment-emergent AEs. Treatment-emergent AEs are those with an onset on or after the initiation of therapy and will be graded according to NCI CTCAE Version 5.0. Other safety endpoints, including laboratory results, vital signs, and ECG findings, were summarized for all patients in the Safety set.

[1] = Cohort 2/200 mg QD, patient 1, first listed event
[2] = Cohort 2/200 mg QD, patient 1, second listed event

## O=C1CC[C@H](N2Cc3cc(N4CCN(CC5CCN(c6ccc([C@@H]7c8ccc(O)cc8OC[C@@H]7c7ccccc7)cc6F)CC5)CC4)ccc3C2=O)C(=O)N1 [compound (1-g), (S)-3-(5-(4-((1-(2-fluoro-4-((3S,4R)-7-hydroxy-3-phenylchroman-4-yl)phenyl)piperidin-4-yl)methyl)piperazin-1-yl)-1-oxoisoindolin-2-yl)piperidine-2,6-dione]
600 mg QD (N = 4)
  TEAE: Influenza Like Illness: 0 n (%)
  TEAE: Insomnia: 0 n (%)
  TEAE: Lower Respiratory Tract Congestion: 0 n (%)
  TEAE: Lymphocyte Count Decreased: 0 n (%)
  TEAE: Muscle Spasm: 0 n (%)
  TEAE: Muscular Weakness: 0 n (%)
  TEAE: Musculoskeletal Stiffness: 0 n (%)
  TEAE: Nail Disorder: 0 n (%)
  TEAE: Nasal Congestion: 0 n (%)
  TEAE: Nausea: 0 n (%)
  TEAE: Neutrophil Count Decreased: 1 (25.0) n (%)
  TEAE: Oedema Peripheral: 0 n (%)
  TEAE: Ophthalmic Migraine: 0 n (%)
  TEAE: Oral Pain: 0 n (%)
  TEAE: Pain In Extremity: 0 n (%)
  TEAE: Pharyngitis: 0 n (%)
  TEAE: Platelet Count Decreased: 0 n (%)
  TEAE: Pleural Effusion: 0 n (%)
  TEAE: Pneumonia: 0 n (%)
  TEAE: Productive Cough: 0 n (%)
  TEAE: Rash Maculo-Papular: 0 n (%)
  TEAE: Rhinitis Allergic: 0 n (%)
  TEAE: Rib Fracture: 0 n (%)
  TEAE: Seizure: 0 n (%)
  TEAE: Sepsis: 0 n (%)
  TEAE: Tremor: 0 n (%)
  TEAE: Upper Respiratory Tract Infection: 0 n (%)
  TEAE: Urinary Tract Infection: 0 n (%)
  TEAE: Vaginal Haemorrhage: 0 n (%)
  TEAE: Vomiting: 0 n (%)
  related TEAE: Alopecia: 0 n (%)
  related TEAE: Arthralgia: 0 n (%)
  related TEAE: Constipation: 1 (25.0) n (%)
  related TEAE: Diarrhea: 0 n (%)
  related TEAE: Dysgeusia: 0 n (%)
  related TEAE: Eructation: 0 n (%)
  related TEAE: Fatigue: 0 n (%)
  related TEAE: Flatulence: 0 n (%)
  related TEAE: Hot Flush: 1 (25.0) n (%)
  related TEAE: Hyperhidrosis: 1 (25.0) n (%)
  related TEAE: Nail Disorder: 0 n (%)
  related TEAE: Nausea: 0 n (%)
  related TEAE: Neutrophil Count Decreased: 1 (25.0) n (%)
  related TEAE: Platelet Count Decreased: 0 n (%)
  related TEAE: Tremor: 0 n (%)
  related TEAE: Vomiting: 0 n (%)
100-600 mg QD
  correlation of TEAE incidence with dose level: did not seem to correlate with increasing dose levels
100-600 mg QD, 37 patients
  dose limiting toxicities: No dose limiting toxicities were observed
Cohort 1 (100 mg QD)
  participants with TEAEs that led to dose interruption: 3 participants
Cohort 1/100 mg QD, patient 1
  CTCAE Grade of TEAE leading to dose interruption: Fall: 2
  Duration of TEAE leading to dose interruption: Fall: 1 days
  Related to Compound (1-g), TEAE leading to dose interruption: Fall: No
Cohort 1/100 mg QD, patient 2
  CTCAE Grade of TEAE leading to dose interruption: Fatigue: 3
  Related to Compound (1-g), TEAE leading to dose interruption: Fatigue: No
Cohort 1/100 mg QD, patient 3
  CTCAE Grade of TEAE leading to dose interruption: Confusional state: 2
  Duration of TEAE leading to dose interruption: Confusional state: 2 days
  Related to Compound (1-g), TEAE leading to dose interruption: Confusional state: No
Cohort 2 (200 mg QD)
  participants with TEAEs that led to dose interruption: 4 participants
[1]
  CTCAE Grade of TEAE leading to dose interruption: Anaemia: 2
  Duration of TEAE leading to dose interruption: Anaemia: 28 days
  Related to Compound (1-g), TEAE leading to dose interruption: Anaemia: No
[2]
  CTCAE Grade of TEAE leading to dose interruption: Anaemia: 3
  Related to Compound (1-g), TEAE leading to dose interruption: Anaemia: No
Cohort 2/200 mg QD, patient 2
  CTCAE Grade of TEAE leading to dose interruption: Fatigue: 2
  CTCAE Grade of TEAE leading to dose interruption: Muscular weakness: 2
  Related to Compound (1-g), TEAE leading to dose interruption: Fatigue: No
  Related to Compound (1-g), TEAE leading to dose interruption: Muscular weakness: No
Cohort 2/200 mg QD, patient 3
  CTCAE Grade of TEAE leading to dose interruption: Seizure: 3
  CTCAE Grade of TEAE leading to dose interruption: Sepsis: 3
  Duration of TEAE leading to dose interruption: Seizure: 20 days
  Duration of TEAE leading to dose interruption: Sepsis: 20 days
  Related to Compound (1-g), TEAE leading to dose interruption: Seizure: No
  Related to Compound (1-g), TEAE leading to dose interruption: Sepsis: No
Cohort 2/200 mg QD, patient 4, first listed event
  CTCAE Grade of TEAE leading to dose interruption: Pain in extremity: 1
